# Experimental data as given in patent US20230372313A1, “METHODS FOR REDUCING GLYCOSPHINGOLIPID CONCENTRATION IN BRAIN TISSUE AND METHODS OF TREATMENT OF NEURODEGENERATIVE DISEASES INVOLVING THE SAME” (GENZYME CORPORATION, priority 2020, published 2023).
# Assays:
# [1] = test system: participants with early-stage PD carrying a GBA mutation; assay: MDS-UPDRS (parts II and III) scores in OFF state; type: in vivo, human; settings: Combined Japan + ROW, all Compound 2 doses, N = 22, OFF state
# Method: MDS-UPDRS (parts II [motor experiences of daily living; 13 items] and III [motor examination; 18 items]) scores are reported through Week 8. The MDS-UPDRS scale was assessed during the OFF state, with no PD medication taken for ≥12 hours prior.
# The changes from baseline in MDS-UPDRS (parts II and III) scores at week 8 were assessed for participants in part 1 of the clinical study described in Example 2.
# [2] = Safety and tolerability: adverse events in the treatment-emergent period, part 1 of phase 2 trial in PD patients carrying a GBA mutation; type: in vivo, human
# From the text: This clinical trial is a 3-year, phase 2, randomised, double-blinded, placebo-controlled, multicenter study of Compound 2 in participants with early-stage PD carrying a GBA mutation. The trial is divided into 2 consecutive parts: part 1 is a dose escalation study (described below) of safety, pharmacokinetics, and pharmacodynamics of 3 doses using 3 sequential cohorts; part 2 is an ongoing 2-arm study of efficacy and safety of Compound 2.
# Participants were randomised to 3 doses of once-daily orally administered Compound 2 or placebo, in sequential cohort design, and were followed up to 36 weeks (52 weeks for Japanese participants). Participants in the low-dose group received 4 mg of Compound 2 as a once daily oral dose; participants in the mid-dose group received 8 mg of Compound 2 a once daily oral dose; and participants in the high-dose group received 15 mg of Compound 2 a once daily oral dose.
# The primary outcome in part 1 of trial was an assessment of safety and tolerability of orally administered Compound 2 versus placebo through Week 4 (primary analysis period for each sequential cohort). In addition, safety assessments were recorded for every 4 weeks until completion. Safety was assessed by physical examination; neurological examination; clinical laboratory evaluations conducted at a central laboratory, including haematology, biochemistry, urinalysis, and serology tests; vital signs; assessment of AEs and concomitant medication; ophthalmological examination; and electrocardiogram. AEs, serious Aes, and AEs of special interest (AESI) were recorded throughout the study. Serious AEs were defined as fatal, or life threatening, requiring or prolonging inpatient hospitalisation, or disabling/incapacitating, congenital anomalies, or medically important events (e.g. malignancies or chronic neurodegenerative diseases). AESI included new or worsening lens opacities and cataracts (as assessed by ophthalmology evaluations at screening and at Weeks 4, 12, 28, 36 [Weeks 4, 12, 36, 52 for Japanese participants]), pregnancy events, increase of alanine aminotransferase, or symptomatic overdose with study drug.
# During the study, 29 participants were randomised to Compound 2 (Japan, n=9; ROW, n=13) or placebo (n=3; n=4). Eight (89%) Japanese and 12 (92%) ROW Compound 2-treated participants experienced ≥1 adverse event (AE) versus 2 (67%) and 4 (100%) participants from the respective placebo groups. […] Two Compound 2-treated ROW participants discontinued due to AEs (confusional state and panic attack).
smiles,measurement,setting,value
"CC(C)(NC(=O)O[C@@H]1CN2CCC1CC2)c1csc(-c2ccc(F)cc2)n1 [Compound 2, (S)-quinuclidin-3-yl (2-(2-(4-fluorophenyl)thiazol-4-yl)propan-2-yl)carbamate]","MDS-UPDRS (part II + III) score, Change from baseline at week 8 (mean)",[1],−2.9
same,Number of participants with AEs: Infections and infestations,"[2]; Japan, High 15 mg once daily oral, n = 3",1
same,Number of participants with AEs: Infections and infestations,"[2]; Japan, Low 4 mg once daily oral, n = 3",2
same,Number of participants with AEs: Infections and infestations,"[2]; Japan, Mid 8 mg once daily oral, n = 3",0
same,Number of participants with AEs: Infections and infestations,"[2]; ROW, High 15 mg once daily oral, n = 4",1
same,Number of participants with AEs: Infections and infestations,"[2]; ROW, Low 4 mg once daily oral, n = 4",0
same,Number of participants with AEs: Infections and infestations,"[2]; ROW, Mid 8 mg once daily oral, n = 5",0
same,serious AEs or deaths,"[2]; all participants, part 1",no serious AEs or deaths occurred
same,participants who discontinued due to AEs (confusional state and panic attack),"[2]; human, in vivo",Two
